US9073876B2, “Flap modulators” (JANSSEN PHARMACEUTICA NV, priority 2013, dated 2015)

Legend:
[1] = test system: leukotriene pathway in human whole blood (LTB4 levels); experiment: Human whole blood assay (LTB4); assay type: cell-based; conditions: human whole blood diluted 1:1 in RPMI, stimulated with calcium ionophore A23187; single replicate
Description: (§1) The ability of the compounds of the present invention to treat a FLAP-mediated disease and/or disorder, or associated symptoms or complications thereof, was determined using the following procedures. Binding assay data represent the average value obtained from two different assay plates, with samples run in duplicate on each plate. Human whole blood assay data represent a single replicate on an assay plate using whole blood from at least one healthy donor.
An in vitro cellular assay was performed using human whole blood collected in heparin-containing tubes, which was used to test the ability of compounds to modulate the leukotriene pathway in human whole blood. The blood was diluted 1:1 in RPMI medium, pre-incubated for 15 min at 37° Celsius with test compounds at various concentrations, and then stimulated with calcium ionophore, A23187 (7 μg/mL), for 30 min at 37° Celsius. The samples were then centrifuged and plasma was removed. The plasma was diluted in assay buffer and LTB4 levels were measured using a commercial kit (Enzo Life Sciences). The concentration of each compound that was required for half-maximal inhibition (modulation) of recombinant enzyme activity (IC50) was calculated by a 4-parameter equation using the program GraphPad Prism (GraphPad software).

[2] = molecular target: human FLAP (Homo sapiens (Human), UniProt P20292); experiment: FLAP binding assay (HTRF); conditions: human FLAP-containing membranes, HTRF format; average of two assay plates, duplicates; read-out: FLAP Binding wild type HTRF Ki
Sequence of human FLAP (P20292 whole entry): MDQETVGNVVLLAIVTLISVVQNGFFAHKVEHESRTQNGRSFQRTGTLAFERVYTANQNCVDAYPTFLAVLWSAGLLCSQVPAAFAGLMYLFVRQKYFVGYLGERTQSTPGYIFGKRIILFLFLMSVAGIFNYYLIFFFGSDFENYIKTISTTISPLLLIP
Description: as §1
Data are expressed as a HTRF ratio.

| Compound | IC50 [1] [nM] | Ki [2] [nM] |
| --- | --- | --- |
| 6-cyclobutyl-2-fluoro-3-(5H-pyrrolo[2,3-b]pyrazin-2-yl)phenol [Example 176] | 892 | 100 |
| Nc1cnc(-c2ccc(C3CCC3)c(OCC(O)Cn3cnccc3=O)c2F)cn1 (racemic) [Example 52, racemic 3-(3-(3-(5-Aminopyrazin-2-yl)-6-cyclobutyl-2-fluorophenoxy)-2-hydroxypropyl)pyrimidin-4(3H)-one] | 680 | 366 |
| Nc1cnc(-c2ccc(C3CCC3)c(OCC(O)Cn3ncccc3=O)c2F)cn1 (racemic) [Example 53, racemic 2-(3-(3-(5-Aminopyrazin-2-yl)-6-cyclobutyl-2-fluorophenoxy)-2-hydroxypropyl)pyridazin-3(2H)-one] | 645 | 138 |
| Nc1cnc(-c2ccc(C3CCC3)c(OCC(O)Cn3ccncc3=O)c2F)cn1 (racemic) [Example 54, racemic 1-(3-(3-(5-Aminopyrazin-2-yl)-6-cyclobutyl-2-fluorophenoxy)-2-hydroxypropyl)pyrazin-2(1H)-one] | 909 | 296 |
| Nc1cnc(-c2ccc(C3CCC3)c(OCC(O)CNc3cncnc3)c2F)cn1 (racemic) [Example 55, racemic 1-(3-(5-Aminopyrazin-2-yl)-6-cyclobutyl-2-fluorophenoxy)-3-(pyrimidin-5-ylamino)propan-2-ol] | 555 | 152 |
| Nc1cnc(-c2ccc(C3CCC3)c(OCC(O)CNc3cnccn3)c2F)cn1 (racemic) [Example 57, racemic 1-(3-(5-Aminopyrazin-2-yl)-6-cyclobutyl-2-fluorophenoxy)-3-(pyrazin-2-ylamino)propan-2-ol] | 345 | 36 |
| Nc1cnc(-c2ccc(C3CCC3)c(OCc3cc(Cl)ccc3Cl)c2F)cn1 [Example 38, 5-{4-Cyclobutyl-3-[(2,5-dichlorobenzyl)oxy]-2-fluorophenyl}pyrazin-2-amine] | 736 |  |
| Nc1cnc(-c2ccc(C3CCC3)c(OCc3nc(C4CC4)no3)c2F)cn1 [Example 48, 5-{4-Cyclobutyl-3-[(3-cyclopropyl-1,2,4-oxadiazol-5-yl)methoxy]-2-fluorophenyl}pyrazin-2-amine] | 175 |  |
| CC(C)(C)OC(=O)COc1c(C2CCC2)ccc(-c2cnc(N)cn2)c1F [Example 49, tert-Butyl [3-(5-aminopyrazin-2-yl)-6-cyclobutyl-2-fluorophenoxy]acetate] | 1150 |  |
| Cc1nc(COc2c(C3CCC3)ccc(-c3cnc(N)cn3)c2F)no1 [Example 70, 5-{4-Cyclobutyl-2-fluoro-3-[(5-methyl-1,2,4-oxadiazol-3-yl)methoxy]phenyl}pyrazin-2-amine] | 413 |  |
| CCOC(=O)c1ccc(COc2c(C3CCC3)ccc(-c3cnc(N)cn3)c2F)o1 [Example 73, Ethyl 5-{[3-(5-aminopyrazin-2-yl)-6-cyclobutyl-2-fluorophenoxy]methyl}furan-2-carboxylate] | 1020 |  |
| Nc1cnc(-c2ccc(C3CCC3)c(OCc3cc(S(F)(F)(F)(F)F)ccc3F)c2F)cn1 [Example 77, 5-(4-Cyclobutyl-2-fluoro-3-{[2-fluoro-5-(pentafluoro-lambda~6~- sulfanyl)benzyl]oxy}phenyl)pyrazin-2-amine] | 1380 |  |
| Nc1cnc(-c2ccc(C3CCC3)c(OCc3ccc(C(=O)O)o3)c2F)cn1 [Example 85, 5-{[3-(5-Aminopyrazin-2-yl)-6-cyclobutyl-2-fluorophenoxy]methyl}furan-2-carboxylic acid] | 10000 |  |
| CC(C)c1ccnc(Oc2c(C3CCC3)ccc(-c3cnc(N)cn3)c2F)n1 [Example 90, 5-(4-Cyclobutyl-2-fluoro-3-{[4-(1-methylethyl)pyrimidin-2-yl]oxy}phenyl)pyrazin-2-amine] | 53.8 |  |
| N#Cc1ccnc(Oc2c(C3CCC3)ccc(-c3cnc(N)cn3)c2F)n1 [Example 92, 2-[3-(5-Aminopyrazin-2-yl)-6-cyclobutyl-2-fluorophenoxy]pyrimidine-4-carbonitrile] | 6660 |  |
| N#Cc1ccc(Oc2c(C3CCC3)ccc(-c3cnc(N)cn3)c2F)nc1 [Example 114, 6-[3-(5-Aminopyrazin-2-yl)-6-cyclobutyl-2-fluorophenoxy]pyridine-3-carbonitrile] | 375 |  |
| CS(=O)(=O)c1ccc(Oc2c(C3CCC3)ccc(-c3cnc(N)cn3)c2F)cc1 [Example 116, 5-{4-Cyclobutyl-2-fluoro-3-[4-(methylsulfonyl)phenoxy]phenyl}pyrazin-2-amine] | 503 |  |
| CC(C)c1nccc(Oc2c(C3CCC3)ccc(-c3cnc(N)cn3)c2F)n1 [Example 135, 5-(4-Cyclobutyl-2-fluoro-3-{[2-(1-methylethyl)pyrimidin-4-yl]oxy}phenyl)pyrazin-2-amine] | 12.4 |  |
| NC(=O)c1ccc(Oc2c(C3CCC3)ccc(-c3cnc(N)cn3)c2F)cc1 [Example 155, 4-[3-(5-Aminopyrazin-2-yl)-6-cyclobutyl-2-fluorophenoxy]benzamide] | 170 |  |
| COc1c(C2CCC2)ccc(-c2cnc3c(c2)CCN3)c1F [Example 198, 5-(4-cyclobutyl-2-fluoro-3-methoxyphenyl)-2,3-dihydro-1H-pyrrolo[2,3-b]pyridine] | 2370 |  |
| CC(C)(C)c1ccc(-c2cnc(N)cn2)c(F)c1Oc1cc(N)ncn1 [Example 202, 6-[3-(5-Aminopyrazin-2-yl)-6-tert-butyl-2-fluorophenoxy]pyrimidin-4-amine] | 80.5 |  |
| N#Cc1nc(-c2ccc(C3CCC3)c(O)c2F)cnc1N [Example 222, 3-amino-6-(4-cyclobutyl-2-fluoro-3-hydroxyphenyl)pyrazine-2-carbonitrile] | 3480 |  |
| COc1cc(Oc2c(C3CCC3)ccc(-c3cnc4[nH]ccc4c3)c2F)ncn1 [Example 228, 5-(4-cyclobutyl-2-fluoro-3-((6-methoxypyrimidin-4-yl)oxy)phenyl)-1H-pyrrolo[2,3-b]pyridine] | 480 |  |
| CC(C)(C)OC(=O)N1CCC(COc2c(C3CCC3)ccc(-c3cnc(N)cn3)c2F)C1 (centres unmarked) [Example 247, tert-butyl 3-((3-(5-aminopyrazin-2-yl)-6-cyclobutyl-2-fluoro-phenoxy)methyl)pyrrolidine-1-carboxylate] | 417 |  |
| Nc1cnc(-c2ccc(C3CCC3)c(Oc3cnc4cc(F)c(F)cc4n3)c2F)cn1 [Example 271, 5-{4-Cyclobutyl-3-[(6,7-difluoroquinoxalin-2-yl)oxy]-2-fluorophenyl}pyrazin-2-amine] | 85.3 |  |
| COC(=O)c1ccc2oc(COc3c(C4CCC4)ccc(-c4cnc(N)cn4)c3F)nc2c1 [Example 274, Methyl 2-{[3-(5-aminopyrazin-2-yl)-6-cyclobutyl-2-fluorophenoxy]methyl}-1,3-benzoxazole-5-carboxylate] | 160 |  |
| COC(=O)c1ccc(O)c(NC(=O)COc2c(C3CCC3)ccc(-c3cnc(N)cn3)c2F)c1 [Example 275, Methyl 3-({[3-(5-aminopyrazin-2-yl)-6-cyclobutyl-2-fluorophenoxy]acetyl}amino)-4-hydroxybenzoate] | 1960 |  |
| Nc1cnc(-c2ccc(C3CCCCC3)c(Oc3ncccn3)c2F)cn1 [Example 320, 5-(4-Cyclohexyl-2-fluoro-3-(pyrimidin-2-yloxy)phenyl)pyrazin-2-amine] | 167 |  |
| Nc1cnc(-c2ccc(C3CCC3)c(Oc3nc4ncccc4s3)c2F)cn1 [Example 330, 5-(4-Cyclobutyl-2-fluoro-3-(thiazolo[4,5-b]pyridin-2-yloxy)phenyl)pyrazin-2-amine] | > 1000 |  |
